Measurements published in PubChem BioAssay AID256 (DTP/NCI, 2004).
Values joined by “and” are separate entries in the source; they are usually repeats but may differ in a detail not shown here. Equal entries are not always repeated. Toxic doses and inconclusive results are not listed. Residues, ends and D or L forms follow the SMILES beside them.

System: CD2F1 mice, L1210 leukemia ip, survival T/C
Assay: NCI In Vivo Anticancer Drug Screen. Data for tumor model L1210 Leukemia (intraperitoneal) in CD2F1 (CDF1) mice
Conditions: higher = longer survival
Procedure, shortened: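 Ratio T/C, where T is the treated-group value and C the vehicle-dosed control value, from mice implanted with a transplantable tumor.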

[1] = endpoint: mean survival time, dose: 100.0 mg/kg/injection, schedule: Q01DX009 (ip), vehicle: saline with Tween-80
[2] = endpoint: mean survival time, dose: 200.0 mg/kg/injection, schedule: Q01DX009 (ip), vehicle: saline with Tween-80
[3] = endpoint: mean survival time, dose: 400.0 mg/kg/injection, schedule: Q01DX009 (ip), vehicle: saline with Tween-80
[4] = endpoint: mean survival time, dose: 100.0 mg/kg/injection, schedule: Q01DX001 (ip), vehicle: saline with Tween-80
[5] = endpoint: mean survival time, dose: 200.0 mg/kg/injection, schedule: Q01DX001 (ip), vehicle: saline with Tween-80
[6] = endpoint: mean survival time, dose: 400.0 mg/kg/injection, schedule: Q01DX001 (ip), vehicle: saline with Tween-80
[7] = endpoint: mean survival time, dose: 400.0 mg/kg/injection, schedule: Q01DX001 (ip), vehicle: other

In the case of Cc1c2c(cc3c1[nH]c1ccccc13)C(c1ccc(Cl)cc1)=NCC2, the T/C [1] is reported as 101 % of control, the T/C (endpoint: mean survival time, dose: 100.0 mg/kg/injection, schedule: Q04DX003 (ip), vehicle: saline with Tween-80) is reported as 101 % of control and the T/C [2] is reported as 98 % of control. The T/C (endpoint: mean survival time, dose: 200.0 mg/kg/injection, schedule: Q04DX003 (ip), vehicle: saline with Tween-80) was 89 % of control, the T/C [3] was 106 % of control and the T/C (endpoint: mean survival time, dose: 400.0 mg/kg/injection, schedule: Q04DX003 (ip), vehicle: saline with Tween-80) was 88 % of control.

With Cc1c2c[n+](CCCCCCCC[n+]3ccc4c(C)c5c(c(C)c4c3)c3ccccc3n5CCO)ccc2c(C)c2c1c1ccccc1n2CCO the T/C (endpoint: mean survival time, dose: 1.56 mg/kg/injection, schedule: Q04DX003 (ip), vehicle: distilled water + Tween-80) was 119 % of control, the T/C (endpoint: mean survival time, dose: 6.25 mg/kg/injection, schedule: Q04DX003 (ip), vehicle: distilled water + Tween-80) was 150 % of control and 159 % of control and the T/C (endpoint: mean survival time, dose: 12.5 mg/kg/injection, schedule: Q04DX003 (ip), vehicle: distilled water + Tween-80) was 114 % of control.

In the case of N=Cc1ccccc1, the T/C (endpoint: mean survival time, dose: 100.0 mg/kg/injection, schedule: Q01DX001 (ip), vehicle: Klucel (hydroxypropylcellulose) (HPC)) is reported as 99 % of control, the T/C (endpoint: mean survival time, dose: 200.0 mg/kg/injection, schedule: Q01DX001 (ip), vehicle: Klucel (hydroxypropylcellulose) (HPC)) is reported as 96 % of control and the T/C (endpoint: mean survival time, dose: 400.0 mg/kg/injection, schedule: Q01DX001 (ip), vehicle: Klucel (hydroxypropylcellulose) (HPC)) is reported as 105 % of control.

CCOc1cccc(Cc2cn(Cc3cccc(NC(=O)Nc4ccc(S(=O)(=O)F)cc4)c3)c(=O)[nH]c2=O)c1 was tested, and the T/C [4] was 86 % of control, the T/C [5] was 92 % of control and the T/C [6] was 86 % of control.

With O=C1CCCCCC1c1ccccc1 (configuration not stated) the T/C [1] was 102 % of control, the T/C [2] was 102 % of control and the T/C [3] was 98 % of control.

For CO[C@H]1C[C@@H]2CC[C@@H](C)[C@@](O)(O2)C(=O)C(=O)N2CCCC[C@H]2C(=O)O[C@H]([C@H](C)C[C@@H]2CC[C@@H](O)[C@H](OC)C2)CC(=O)[C@H](C)C=C(C)[C@@H](O)[C@@H](OC)C(=O)[C@H](C)C[C@H](C)/C=C/C=C/C=C1C, the T/C (endpoint: mean survival time, dose: 12.5 mg/kg/injection, schedule: Q01DX009 (ip), vehicle: saline with Tween-80) was 107 % of control, the T/C (endpoint: mean survival time, dose: 25.0 mg/kg/injection, schedule: Q01DX009 (ip), vehicle: saline with Tween-80) was 113 % of control and the T/C (endpoint: mean survival time, dose: 50.0 mg/kg/injection, schedule: Q01DX009 (ip), vehicle: saline with Tween-80) was 114 % of control. The T/C [4] was 113 % of control, the T/C [1] was 112 % of control and the T/C [5] was 111 % of control. For the same compound, the T/C [2] was 104 % of control and the T/C [6] was 120 % of control.

In the case of CCCCCCCCCCCCC(=O)N1CCOCC1, the T/C [1] is reported as 105 % of control, the T/C [2] is reported as 94 % of control and the T/C [3] is reported as 103 % of control.

In the case of OCC1OC(n2cnc3c(SCc4ccccc4)ncnc32)C(O)C1O (configuration not stated), the T/C (endpoint: mean survival time, dose: 78.0 mg/kg/injection, schedule: Q01DX001 (ip), vehicle: saline) is reported as 104 % of control, the T/C (endpoint: mean survival time, dose: 100.0 mg/kg/injection, schedule: Q04DX003 (ip), vehicle: saline) is reported as 101 % of control and the T/C (endpoint: mean survival time, dose: 117.0 mg/kg/injection, schedule: Q01DX001 (ip), vehicle: saline) is reported as 109 % of control. For the same compound, the T/C (endpoint: mean survival time, dose: 132.0 mg/kg/injection, schedule: Q01DX009 (ip), vehicle: saline) was 176 % of control, the T/C (endpoint: mean survival time, dose: 200.0 mg/kg/injection, schedule: Q01DX009 (ip), vehicle: saline) was 187 % of control and the T/C (endpoint: mean survival time, dose: 200.0 mg/kg/injection, schedule: Q04DX003 (ip), vehicle: saline) was 98 % of control. For the same compound, the T/C [7] was 152 % of control and the T/C (endpoint: mean survival time, dose: 400.0 mg/kg/injection, schedule: Q04DX003 (ip), vehicle: saline) was 104 % of control.

Cc1noc2nc(-c3ccccc3)cc(N3CCN(C)CC3)c12 was tested, and the T/C (endpoint: median survival time, dose: 12.5 mg/kg/injection, schedule: Q01DX005 (ip), vehicle: other) was 100 % of control, the T/C (endpoint: median survival time, dose: 25.0 mg/kg/injection, schedule: Q01DX005 (ip), vehicle: other) was 103 % of control and the T/C (endpoint: median survival time, dose: 50.0 mg/kg/injection, schedule: Q01DX005 (ip), vehicle: other) was 98 % of control. The T/C (endpoint: median survival time, dose: 100.0 mg/kg/injection, schedule: Q01DX005 (ip), vehicle: other) was 97 % of control and the T/C (endpoint: median survival time, dose: 200.0 mg/kg/injection, schedule: Q01DX005 (ip), vehicle: other) was 98 % of control.

For Nc1cc(N)c2[nH]cnc2n1, the T/C (endpoint: mean survival time, dose: 100.0 mg/kg/injection, schedule: Q01DX001 (ip), vehicle: other) was 104 % of control, the T/C (endpoint: mean survival time, dose: 200.0 mg/kg/injection, schedule: Q01DX001 (ip), vehicle: other) was 97 % of control and the T/C [7] was 98 % of control.

CC(O)C(NC(=O)C(N)CCCN=C(N)N)C(=O)NC(Cc1ccccc1)C(=O)O (stereo not drawn) (H-Arg-Thr-Phe-OH; configuration not given here) was tested, and the T/C (endpoint: mean survival time, dose: 12.5 mg/kg/injection, schedule: Q04DX002 (ip), vehicle: saline) was 98 % of control, the T/C (endpoint: mean survival time, dose: 25.0 mg/kg/injection, schedule: Q04DX002 (ip), vehicle: saline) was 95 % of control and the T/C (endpoint: mean survival time, dose: 50.0 mg/kg/injection, schedule: Q04DX002 (ip), vehicle: saline) was 98 % of control.

For CCCCCCCCCCCCCCCC(=O)N(CCC#N)C(C)(C)CCC(C)(C)N(CCC#N)C(=O)CCCCCCCCCCCCCCC, the T/C (endpoint: mean survival time, dose: 25.0 mg/kg/injection, schedule: Q01DX009 (ip), vehicle: Klucel (hydroxypropylcellulose) (HPC)) was 95 % of control, the T/C (endpoint: mean survival time, dose: 50.0 mg/kg/injection, schedule: Q01DX009 (ip), vehicle: Klucel (hydroxypropylcellulose) (HPC)) was 95 % of control and the T/C (endpoint: mean survival time, dose: 100.0 mg/kg/injection, schedule: Q01DX009 (ip), vehicle: Klucel (hydroxypropylcellulose) (HPC)) was 88 % of control. For the same compound, the T/C (endpoint: mean survival time, dose: 200.0 mg/kg/injection, schedule: Q01DX009 (ip), vehicle: Klucel (hydroxypropylcellulose) (HPC)) was 88 % of control.
